How the values were obtained:
[1] = system: Hep3B (human liver cancer cells); assay: In vitro proliferation inhibition (CCK-8), Hep3B; type: cell-based; settings: for IC50: Homo sapiens
Excerpt: • 1) Cell sources: HeLa (human cervical cancer cells), CaSki (human cervical cancer intestinal metastasis cells), Huh7 (human liver cancer cells), HepG2 (human liver cancer cells), Hep3B (human liver cancer cells) were purchased from the Chinese Academy of Sciences cell bank (Shanghai); LO2 (human normal liver cells) and HcerEpic (human normal uterine epithelial cells) were from ATCC. • 2) Cell culture and passage: The cell culture and passage method is the same as that described in “The inhibitory effect of compounds on the OCT4 protein in tumor stem cells (CSC)”. • 3) Cell dosing treatment: The each type of cells mentioned above was digested, counted, and inoculated in each well of the 96 well cell culture plate (#3988, Corning) at a density of 5000 cells/200 μl culture medium. They were cultured in a cell culture incubator at 37° C. and 5% CO2 for 24 hours to allow the cells to fully adherent to the wall. Then, the original culture medium was replaced with complete culture medium containing gradient diluted KZT-A5 (each concentration with 3 repeated wells) as well as DMSO (#D5879, Sigma Aldrich) solvent control, and they are cultured for additional 72 hours. • 4) Pharmacodynamic test and statistics: First, the morphology of cells treated with the above compounds was observed, photographed and recorded using an inverted phase contrast microscope (X71, Olympus). Then the original culture medium was replaced with phenol red free culture medium containing CCK-8 detection reagent (#E606335, Shanghai Shenggong) respectively, and they are cultured in the incubator for additional 2 hours. Then the OD450 nm absorbance value (OD value) was measured on a multifunctional enzyme-linked immunosorbent assay (168-1130, Bio Rad). After the cells were treated with the test compound, the equations for calculating the cell survival rate or cell growth rate is: survival rate=GD value of the treated group/OD value of the control group×100%; the equations for calculating the growth inhibition rate of compounds on cell proliferation is: inhibition rate=(OD value of control group−OD value of the treated group)/OD value of control group×100%. Further, the IC50 of each compound was calculated in SPSS based on the inhibition rate. […]

tumor microspheres = assay: Generation of tumor microspheres by tumor cells (HeLa, Caski, Hep3B, Huh7); type: cell-based, human; settings: 1 or 10 μM, 48 hours, FIG. 5
Experimental: (§1) • 1) Cell sources: cervical cancer cells HeLa and Caski, liver cancer cells Hep3B and Huh7 were all purchased from the Chinese Academy of Sciences cell bank (Shanghai). • 2) Tumor microsphere culture: The specific culture method for tumor microspheres can be found in the literature (Cheng J et al. Tryptophan derivatives regulate the transfer of Oct4 in stem-like cancer cells. Nat Commun. 2015, 6:7209). Each tumor cell was cultured separately in a medium containing 2% B27, 10 ng/ml BFGF, 5 ng/ml EGF, and 10 ng/ml LIF to form CSC rich tumor microspheres. • 3) Cell dosing treatment: HeLa cell lines and Huh7 cell lines were inoculated in a 6-well plate containing the aforementioned culture medium at a density of 200 cells per well, while Hep3B cell lines and Caski cell lines were inoculated in a 6-well plate containing the aforementioned culture medium at a density of 2000 cells per well. KZT-A5 or AH057 at concentrations of 1 μM or 10 μM was added, and the morphology of tumor microspheres was observed, photographed and recorded after 48 hours of treatment.

[2] = system: Huh7 (human liver cancer cells); assay: In vitro proliferation inhibition (CCK-8), Huh7; type: cell-based
Excerpt: • 1) Cell sources: HeLa (human cervical cancer cells), CaSki (human cervical cancer intestinal metastasis cells), Huh7 (human liver cancer cells), HepG2 (human liver cancer cells), Hep3B (human liver cancer cells) were purchased from the Chinese Academy of Sciences cell bank (Shanghai); LO2 (human normal liver cells) and HcerEpic (human normal uterine epithelial cells) were from ATCC. • 2) Cell culture and passage: The cell culture and passage method is the same as that described in “The inhibitory effect of compounds on the OCT4 protein in tumor stem cells (CSC)”. • 3) Cell dosing treatment: The each type of cells mentioned above was digested, counted, and inoculated in each well of the 96 well cell culture plate (#3988, Corning) at a density of 5000 cells/200 μl culture medium. They were cultured in a cell culture incubator at 37° C. and 5% CO2 for 24 hours to allow the cells to fully adherent to the wall. Then, the original culture medium was replaced with complete culture medium containing gradient diluted KZT-A5 (each concentration with 3 repeated wells) as well as DMSO (#D5879, Sigma Aldrich) solvent control, and they are cultured for additional 72 hours. • 4) Pharmacodynamic test and statistics: First, the morphology of cells treated with the above compounds was observed, photographed and recorded using an inverted phase contrast microscope (X71, Olympus). Then the original culture medium was replaced with phenol red free culture medium containing CCK-8 detection reagent (#E606335, Shanghai Shenggong) respectively, and they are cultured in the incubator for additional 2 hours. Then the OD450 nm absorbance value (OD value) was measured on a multifunctional enzyme-linked immunosorbent assay (168-1130, Bio Rad). After the cells were treated with the test compound, the equations for calculating the cell survival rate or cell growth rate is: survival rate=GD value of the treated group/OD value of the control group×100%; the equations for calculating the growth inhibition rate of compounds on cell proliferation is: inhibition rate=(OD value of control group−OD value of the treated group)/OD value of control group×100%. Further, the IC50 of each compound was calculated in SPSS based on the inhibition rate.
• 1) Cell sources: Huh7 (human liver cancer cells), HepG2 (human liver cancer cells), Hep3B (human liver cancer cells), and HeLa (human cervical cancer cells) were all purchased from the Chinese Academy of Sciences cell bank (Shanghai), while LO2 (human normal liver cells) was obtained from ATCC. • 2) Cell culture and passage: The cell culture and passage method is the same as that described in “The inhibitory effect of compounds on human tumor cell lines from different tissue sources (1)”. • 3) Cell dosing treatment: The cell dosing treatment method is the same as that described in “The inhibitory effect of compounds on human tumor cell lines from different tissue sources (1). • 4) Pharmacodynamic test and statistics: The pharmacodynamic test and statistics method is the same as that described in “The inhibitory effect of compounds on human tumor cell lines from different tissue sources (1)”. The IC50 value data of the compound on each type of tumor cells is the average±standard deviation of three wells in one test.

Huh7 cells = assay: Tumor microspheres cultured in Huh7 cells; type: cell-based, human; settings: Huh7, 1 μM, 48 hours
Experimental: as §1

- IC50 ([1]; 72 hours, CCK-8, average of three wells in one test): 36600 nM
- IC50 ([1]; test (2), average±standard deviation of three wells): 23500 ± 1510 nM
- IC50 ([2]; Homo sapiens, Huh-7, 72 h, Huh7, 72 hours, CCK-8, average of three wells in one test): < 1000 nM
- IC50 ([2]; Homo sapiens, Huh-7, Huh7, test (2), average±standard deviation of three wells): 1420 ± 120 nM
- IC50 ([2]; Huh7, 72 hours, CCK-8, average of three wells in one test): 800 nM
SMILES: COc1cc(/C=C2\CCc3c([nH]c4ccc(C)cc34)C2=O)ccc1O [KZT-A5]
- inhibitory effect compared with AH057 ([1]; Table 3): comparable to AH057
- inhibition of generation of tumor microspheres (tumor microspheres): dose-dependently inhibit the generation of tumor microspheres
- inhibitory effect on viability compared with AH057 ([2]; Huh7, FIG. 6): more significant inhibitory effect
- inhibitory effect on tumor microspheres compared with AH057 (Huh7 cells): more significant inhibitory effect compared with the same concentration of AH057
